Source: patent US20180117110A1, “METHOD OF TREATING CANCER” (THE WALTER AND ELIZA HALL INSTITUTE OF MEDICAL RESEARCH, priority 2014, published 2018)

Experiments:
C57BL6 mice = assay: Tolerability of SMAC mimetic plus p38 inhibitor in non tumour-bearing mice; format: in vivo; conditions: 5 mg/kg GT13072 + 15 mg/kg LY2228820 i.p. (FIG. 7C)
Procedure: FIG. 7: Mice tolerate administration of birinapant plus p38 inhibitor. A. Mononuclear cells isolated from healthy donor by Ficoll sedimentation were treated for 48 h with indicated drugs. CD34^+ cell death was measured by staining with PI and flow cytometry. For each donor sample, graphs show mean of at least n=2 technical replicates across n=2-5 independent experiments. B and C. C57BL/6 mice were intra-peritoneally injected with vehicle (captisol 6%) or birinapant (B) or GT13072 (C) or LY2228820 or combination of LY2228820 and SM at indicated concentration. Mice received 8 injections twice a week over 4 weeks. Mice were euthanised 2 weeks after the treatment stopped. Graphs show organs, body weights and blood cell populations with 6 mice/group (B), 4 mice/group (C). Error bars are SEM.
To assess the safety of SMAC mimetic plus p38 inhibitor C57BL6 mice were injected by intra-peritoneal route twice a week for 4 weeks with either vehicle (6% Captisol) or 15 mg/kg of LY222820 or 5 mg/kg birinapant ±15 mg/kg LY2228820, or 10 mg/kg birinapant±15 mg/kg LY2228820. Another cohort received either vehicle or 5 mg/kg of GT13072, or 15 mg/kg of LY222820 or combination.
200 μL of blood was collected from the retro-orbital plexus into tubes containing potassium ethylenediaminetetraacetic acid (Sarstedt) and analyzed in an Advia 2120 automated hematologic analyzer (Bayer).

[1] = system: Bone Marrow Derived Macrophages (BMDM); assay: BMDM cell viability (CellTiter-Glo) after SMAC mimetic Compound A ± p38 or MK2 inhibitor; format: cell-based, mouse; conditions: inhibitor 30 min then 500 nM Compound A, 24 h, dose dependent (FIG. 1C)
Procedure: FIG. 1: p38 inhibitors increase TNFα production and cell death induced by SMAC mimetics. A. Bone Marrow Derived Macrophages (BMDM) were pretreated ±1 μM of the indicated p38 inhibitors for 30 min then treated with 500 nM of SMAC mimetic Compound A (CompA) for 24 h. TNFα production was measured by ELISA of supernatants. B. BMDM were pretreated 500 nM of SMAC mimetic Compound A, GT13072 or birinapant ±1 μM of LY2228820. TNFα production was measured by ELISA of supernatants. N=3 biological repeats and error bars are SEM. C. BMDM were pretreated ± the indicated dose of MK2 inhibitor PF-3644022 and the p38 inhibitor LY2228820, VX-702, TAK-715 or VX-745 for 30 min then treated with 500 nM of SMAC mimetic Compound A. Cell viability was measured after 24 h of treatment using CellTiter-Glo® (CTG) reagent. N=3 biological repeats and error bars are SEM.
BMDMs from C56/B16, p38α^LysMCre or Mk2^−/− were cultured for 6 days in DMEM+10% FBS (v/v)+20% L929 mouse fibroblasts (a source of macrophage colony stimulating factor), plated and assayed the following day. BMDMs cells were seeded and assayed in the presence of L929 conditioned medium. AML cells were cultured in IMDM +10% FBS (v/v)+2.5 ng/ml of IL-3. NCI-H929 cells were cultured in RPMI+10% FBS (v/v). Cell suspension from breast ER+ patient derived tumours was cultured in mammosphere media. After treatment with SMAC mimetic with or without kinases inhibitors cell viability was measured by staining with propidium iodide (2 μg/mL) or by using CellTiter-Glo® (Promega).

[2] = system: Bone Marrow Derived Macrophages (BMDM); assay: TNFα production by ELISA of supernatants of BMDM treated with SMAC mimetic ± p38 inhibitors (kinase inhibitors screen); format: cell-based, mouse; conditions: 500 nM SMAC mimetic ± 1 μM LY2228820 (FIG. 1B)
Procedure: FIG. 1: p38 inhibitors increase TNFα production and cell death induced by SMAC mimetics. A. Bone Marrow Derived Macrophages (BMDM) were pretreated ±1 μM of the indicated p38 inhibitors for 30 min then treated with 500 nM of SMAC mimetic Compound A (CompA) for 24 h. TNFα production was measured by ELISA of supernatants. B. BMDM were pretreated 500 nM of SMAC mimetic Compound A, GT13072 or birinapant ±1 μM of LY2228820. TNFα production was measured by ELISA of supernatants. N=3 biological repeats and error bars are SEM. C. BMDM were pretreated ± the indicated dose of MK2 inhibitor PF-3644022 and the p38 inhibitor LY2228820, VX-702, TAK-715 or VX-745 for 30 min then treated with 500 nM of SMAC mimetic Compound A. Cell viability was measured after 24 h of treatment using CellTiter-Glo® (CTG) reagent. N=3 biological repeats and error bars are SEM. BMDMs from C56/B16, p38α^LysMCre or Mk2^−/− were cultured for 6 days in DMEM+10% FBS (v/v)+20% L929 mouse fibroblasts (a source of macrophage colony stimulating factor), plated and assayed the following day. BMDMs cells were seeded and assayed in the presence of L929 conditioned medium. AML cells were cultured in IMDM +10% FBS (v/v)+2.5 ng/ml of IL-3. […] After treatment with SMAC mimetic with or without kinases inhibitors cell viability was measured by staining with propidium iodide (2 μg/mL) or by using CellTiter-Glo® (Promega). […]

[3] = system: low- and intermediate-1-risk Myelodysplastic syndromes; conditions: oral administration, Phase I/II; cited from earlier work
[4] = system: human AML patient samples; assay: Response of human AML patient samples to Birinapant in vitro; format: cell-based
[5] = system: advanced solid tumours and lymphoma; conditions: intravenous administration, Phase I; cited from earlier work

CC(C)(C)Cn1c(N)nc2ccc(-c3[nH]c(C(C)(C)C)nc3-c3ccc(F)cc3)nc21 [LY2228820]
effect of LY2228820 on populations of white blood cells (ADVIA analysis) (C57BL6 mice): nor affect the populations of white blood cells
effect of LY2228820 on the splenomegaly induced by GT13072 (C57BL6 mice): did not even exacerbate the splenomegaly
cell death induced by SMAC mimetics [1]: dramatically increased cell death
TNF production of three different smac-mimetics (CompA, GT13072 and birinapant) [2]: increased TNF production

O=c1ncn2nc(Sc3ccc(F)cc3F)ccc2c1-c1c(Cl)cccc1Cl [VX-745]
cell death induced by SMAC mimetics [1]: dramatically increased cell death

C[C@@H]1CN(Cc2ccc(F)cc2)[C@@H](C)CN1C(=O)c1cc2c(C(=O)C(=O)N(C)C)cn(C)c2cc1Cl [Talmapimod]
complete remission [3]: only one patient achieved a complete remission
tolerability in patients [3]: well tolerated

Cc1ccc(-c2ccc3c(ccc4sc5c(c43)NC[C@@H](C)NC5=O)n2)cn1 [PF-3644022]
cell death induced by SMAC mimetics [1]: dramatically increased cell death

NC(=O)c1ccc(N(C(N)=O)c2c(F)cccc2F)nc1-c1ccc(F)cc1F [VX-702]
cell death induced by SMAC mimetics [1]: dramatically increased cell death

CC[C@H](NC(=O)[C@H](C)NC)C(=O)N1C[C@@H](O)C[C@H]1Cc1c(-c2[nH]c3cc(F)ccc3c2C[C@@H]2C[C@H](O)CN2C(=O)[C@H](CC)NC(=O)[C@H](C)NC)[nH]c2cc(F)ccc12 [Birinapant]
response of human AML patient samples to single agent treatment [4]: some human AML patient samples did not respond
anti-tumour activity in patients [5]: evidence of anti-tumour activity
tolerability in patients [5]: well tolerated with no dose-limiting toxicities

CCc1nc(-c2cccc(C)c2)c(-c2ccnc(NC(=O)c3ccccc3)c2)s1 [TAK-715]
cell death induced by SMAC mimetics [1]: dramatically increased cell death
